Experimental data as given in paper PMC5992111, “Heterocyclization of polarized system: synthesis, antioxidant and anti-inflammatory 4-(pyridin-3-yl)-6-(thiophen-2-yl) pyrimidine-2-thiol derivatives” (Chemistry Central Journal, 2018).
Marks after values point to notes of the source that are not given here.

Experiments:
lipid peroxidation = test: Lipid peroxidation assay
Experimental: • Lipid peroxidation assay (5 and 6) was calculated as IC50 and recorded in Table 3.

[1] = DPPH free radical scavenging assay; details: for scavenging activity towards the DPPH radicals (in words): compared with ascorbic acid
Experimental: • DPPH free radical scavenging assay was determined (4). Ascorbic acid was used as reference standard antioxidant.

ovine COX-1 = molecular target: T1, ovine COX-1 (Ovis aries, UniProt P05979); test: In vitro COX-1 inhibition, colorimetric ovine COX-1/COX-2 inhibitor screening assay kit; format: biochemical; details: for IC50: means of three determinations, read at 590 nm, read-out: IC 50 (µM) COX-1; for inhibitory activity against COX-1 (in words): compared with the standard drug celecoxib
T1 construct: purchased
T1 sequence (P05979 25-600): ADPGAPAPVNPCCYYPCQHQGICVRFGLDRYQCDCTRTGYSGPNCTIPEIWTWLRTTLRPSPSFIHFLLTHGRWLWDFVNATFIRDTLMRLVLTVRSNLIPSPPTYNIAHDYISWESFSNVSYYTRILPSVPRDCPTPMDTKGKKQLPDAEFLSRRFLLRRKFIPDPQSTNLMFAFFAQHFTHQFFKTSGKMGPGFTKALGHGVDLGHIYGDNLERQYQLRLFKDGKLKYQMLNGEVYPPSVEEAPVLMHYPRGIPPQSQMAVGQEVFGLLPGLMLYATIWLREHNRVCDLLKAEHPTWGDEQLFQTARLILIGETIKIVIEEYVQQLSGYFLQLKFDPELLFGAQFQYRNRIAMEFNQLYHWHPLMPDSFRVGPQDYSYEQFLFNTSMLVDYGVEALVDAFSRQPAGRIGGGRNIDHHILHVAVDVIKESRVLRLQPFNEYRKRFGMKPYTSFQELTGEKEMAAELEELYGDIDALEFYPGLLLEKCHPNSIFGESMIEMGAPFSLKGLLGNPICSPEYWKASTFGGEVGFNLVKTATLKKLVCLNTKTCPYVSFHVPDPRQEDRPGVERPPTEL

[2] = tested on: carrageenan induced rat paw edema; test: Carrageenan induced rat paw edema; format: in vivo; details: mean ± SD
Experimental: Carrageenan induced rat paw edema in rats: Fifty rats were divided into ten groups (i.e., each group, five rats). The first group (control), received carboxymethyl cellulose. The second group was given diclofenac sodium as a standard anti-inflammatory drug. Groups (3–10) were orally given the newly synthesized compounds (3–6) in two dosages (5 and 10 mg/kg). Results were expressed as rat paw edema percent. One hour later after administration of tested doses, carrageenan was injected sub planter in the left hind footpad of each rat as 0.05 ml of 1% solution in sterile distilled water. Plethysmometer was used to measure paw edema volume from 0 to 4 h after carrageenan injection. Paw edema volume was compared with vehicle control group and reduction percent was calculated as the following %reduction in edema=1-Vt Vc×100 Where Vt and Vc are the edema volume in the group treated with drug and control, respectively. Results were expressed as mean ± standard deviation (SD). Differences between means were tested for significance using a one-way analysis of variance (ANOVA) followed by Duncan’s test (Table 2).

ovine COX-2 = molecular target: T2, ovine COX-2 (Ovis aries, UniProt P79208); test: In vitro COX-2 inhibition, colorimetric ovine COX-1/COX-2 inhibitor screening assay kit; format: biochemical; details: for COX-1/COX-2 selectivity index: IC50 (COX-1)/IC50 (COX-2); for IC50: means of three determinations, read at 590 nm, read-out: IC 50 (µM) COX-2; for inhibitory activity against COX-2 (in words): compared with the standard drug celecoxib
T2 construct: purchased
T2 sequence (P79208 17-603): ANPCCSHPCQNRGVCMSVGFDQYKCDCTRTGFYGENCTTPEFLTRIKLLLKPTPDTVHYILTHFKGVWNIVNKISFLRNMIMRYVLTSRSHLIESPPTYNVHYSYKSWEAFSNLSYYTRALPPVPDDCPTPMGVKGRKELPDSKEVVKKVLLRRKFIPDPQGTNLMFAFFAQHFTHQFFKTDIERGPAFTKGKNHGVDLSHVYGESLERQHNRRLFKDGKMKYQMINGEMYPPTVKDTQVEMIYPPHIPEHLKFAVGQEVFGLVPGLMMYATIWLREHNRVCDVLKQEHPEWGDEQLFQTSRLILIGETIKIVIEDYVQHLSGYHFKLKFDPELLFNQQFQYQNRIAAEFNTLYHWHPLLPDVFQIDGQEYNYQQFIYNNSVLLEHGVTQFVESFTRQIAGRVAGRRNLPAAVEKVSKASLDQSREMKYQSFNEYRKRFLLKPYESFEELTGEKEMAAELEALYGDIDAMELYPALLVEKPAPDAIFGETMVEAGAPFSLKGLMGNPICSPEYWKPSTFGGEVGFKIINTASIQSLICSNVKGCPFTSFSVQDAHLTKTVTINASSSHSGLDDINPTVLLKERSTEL

[3] = 5 mg/kg.b.wt oral, 0 h after carrageenan
[4] = 5 mg/kg.b.wt oral, 1 h after carrageenan
[5] = 5 mg/kg.b.wt oral, 2 h after carrageenan
[6] = 5 mg/kg.b.wt oral, 3 h after carrageenan
[7] = 5 mg/kg.b.wt oral, 4 h after carrageenan
[8] = 10 mg/kg.b.wt oral, 0 h after carrageenan
[9] = 10 mg/kg.b.wt oral, 1 h after carrageenan
[10] = 10 mg/kg.b.wt oral, 2 h after carrageenan
[11] = 10 mg/kg.b.wt oral, 3 h after carrageenan
[12] = 10 mg/kg.b.wt oral, 4 h after carrageenan

Structure (SMILES) | IC50 (μg/ml) for anti-lipid peroxidation (lipid peroxidation) | IC50 (μg/ml) for DPPH Scavenging [1] | IC50 (ovine COX-1) | Inhibition percent of rat paw edema [2, 3] | Inhibition percent of rat paw edema [2, 4] | Inhibition percent of rat paw edema [2, 5] | Inhibition percent of rat paw edema [2, 6] | Inhibition percent of rat paw edema [2, 7] | Inhibition percent of rat paw edema [2, 8] | Inhibition percent of rat paw edema [2, 9] | Inhibition percent of rat paw edema [2, 10] | Inhibition percent of rat paw edema [2, 11] | Inhibition percent of rat paw edema [2, 12] | COX-1/COX-2 selectivity index (ovine COX-2) | IC50 (ovine COX-2) | melting point | other results
O=C1O[C@H]([C@@H](O)CO)C(O)=C1O [Ascorbic acid, reference compound] | 25.72 ± 1.23 µg/mL | 13.71 ± 0.75 µg/mL | – | – | – | – | – | – | – | – | – | – | – | – | – | – | –
O=C(/C=C/c1cccs1)c1cccnc1 [Compound 3, (E)-1-(pyridin-3-yl)-3-(thiophen-2-yl) prop-2-en-1-one] | 16.81 ± 2.71 µg/mL | 10.72 ± 0.54 µg/mL | 3.7 µM | 0.48 ± 0.027^ab % | 21.72 ± 0.79^b % | 22.79 ± 1.07^d % | 24.79 ± 0.49^c % | 28.41 ± 1.30^c % | 0.47 ± 0.04^ab % | 31.98 ± 9.35^a % | 29.93 ± 1.43^b % | 34.16 ± 0.61^b % | 41.15 ± 0.750^a % | 9.49 | 0.39 µM | 256 to 258 °C | scavenging activity towards the DPPH radicals (in words) [1]: higher scavenging activity towards the DPPH radicals than that of ascorbic acid
S=c1nc(-c2cccnc2)cc(-c2cccs2)[nH]1 [Compound 4, 4-(pyridin-3-yl)-6-(thiophen-2-yl) pyrimidine-2(1H)-thione] | 22.53 ± 3.25 µg/mL | 12.64 ± 0.41 µg/mL | 4.02 µM | 0.46 ± 0.03^b % | 18.91 ± 1.19^bc % | 20.07 ± 1.43^e % | 21.96 ± 1.25^d % | 27.38 ± 1.68^c % | 0.49 ± 0.01^ab % | 21.43 ± 0.96^b % | 26.27 ± 49^e % | 33.13 ± 2.64^b % | 37.15 ± 0.69^b % | 9.13 | 0.44 µM | 220 to 225 °C | scavenging activity towards the DPPH radicals (in words) [1]: higher scavenging activity towards the DPPH radicals than that of ascorbic acid
NNc1nc(-c2cccnc2)cc(-c2cccs2)n1 [Compound 5, 1-(4-(pyridin-3-yl)-6-(thiophen-2-yl)pyrimidin-2-yl)hydrazine] | 23.62 ± 2.31 µg/mL | 14.61 ± 0.72 µg/mL | 4.6 µM | 0.49 ± 0.01^a % | 11.62 ± 1.24^de % | 14.61 ± 1.81^g % | 18.41 ± 1^e % | 19.48 ± 0.89^e % | 0.48 ± 0.01^ab % | 15.41 ± 0.83^cd % | 18.83 ± 0.75^ef % | 24.19 ± 1.59^c % | 28.59 ± 2.26^c % | 5.29 | 0.87 µM | 180 to 182 °C | inhibitory activity against COX-1 (in words) (ovine COX-1): nearly like that of the standard drug; inhibitory activity against COX-2 (in words) (ovine COX-2): nearly like that of the standard drug
N#Cc1c(-c2cccs2)cc(-c2cccnc2)oc1=O [Compound 6, 2-oxo-6-(pyridin-3-yl)-4-(thiophen-2-yl)-2H-pyran-3-carbonitrile] | 22.67 ± 3.51 µg/mL | 15.26 ± 0.44 µg/mL | 4.95 µM | 0.50 ± 0.02^a % | 9.61 ± 1.12^e % | 12.28 ± 1.38^h % | 17.19 ± 1.26^e % | 18.51 ± 2.26^e % | 0.49 ± 0.01^a % | 13.75 ± 1.15^de % | 17.52 ± 1.13^f % | 20.43 ± 0.65^d % | 22.39 ± 1.16^d % | 5.89 | 0.84 µM | 210 to 212 °C | inhibitory activity against COX-1 (in words) (ovine COX-1): nearly like that of the standard drug; inhibitory activity against COX-2 (in words) (ovine COX-2): nearly like that of the standard drug
Cc1cc(=O)oc2c1c(C)nn2-c1nc(-c2cccnc2)cc(-c2cccs2)n1 [Compound 8, 3,4-dimethyl-1-(4-(pyridin-3-yl)-6-(thiophen-2-yl)pyrimidin-2-yl)pyrano[2,3-c]pyrazol-6(1H)-one] | – | – | – | – | – | – | – | – | – | – | – | – | – | – | – | 190 to 192 °C | –
CC1=NN(c2nc(-c3cccnc3)cc(-c3cccs3)n2)C(=O)C1 [Compound 9, 3-methyl-1-(4-(pyridin-3-yl)-6-(thiophen-2-yl)pyrimidin-2-yl)-1H-pyrazol-5(4H)-one] | – | – | – | – | – | – | – | – | – | – | – | – | – | – | – | 225 to 227 °C | –
O=C(O)Cc1ccccc1Nc1c(Cl)cccc1Cl [Diclofenac sodium, diclofenac sodium, reference compound] | – | – | – | – | – | – | – | – | – | – | – | – | – | – | – | – | Inhibition percent of rat paw edema ([2]; standard drug, dose not given, 0 h after carrageenan): 0.49 ± 0.032^a %; Inhibition percent of rat paw edema ([2]; standard drug, dose not given, 1 h after carrageenan): 30.22 ± 1.27^a %; Inhibition percent of rat paw edema ([2]; standard drug, dose not given, 2 h after carrageenan): 33.85 ± 1.19^a %; Inhibition percent of rat paw edema ([2]; standard drug, dose not given, 3 h after carrageenan): 36.21 ± 0.93^a %; Inhibition percent of rat paw edema ([2]; standard drug, dose not given, 4 h after carrageenan): 41.10 ± 3.98^a %
